Assay [1] has as its target T1, pro-FSAP in human plasma (Homo sapiens, UniProt Q14520).
T1 construct: from tissue; host or cells: human hirudin or citrate plasma from healthy donors, diluted 1:12
Kind of assay: Activation of endogenous pro-FSAP in plasma, fluorogenic substrate turnover. The assay is classed as biochemical.

The test system of assay [2] is prothrombin. Kind of assay: Specificity towards pro-enzymes: prothrombin. The conditions noted are these: prothrombin 100 nM; peptide 0-50 μM; CS01 (Fig S7). It counts as biochemical. As for the experimental part: Fig S7. […]
(§1) Pro-thrombin (100 nM) and thrombin (20 nM) […]
(§2) Bend, IN, USA) except plasminogen and FSAP, which were isolated in house; and pro-uPA was from Grünenthal (Stolberg, Germany). All chromogenic substrates were from Hyphen Biomed (Neuville Sur Oise, France). Experiments were carried out in TBS with Tween-20 (0.1 % wt/ vol) BSA (0.3% wt/vol) and CaCl2 (2 mM). Absorbance at 405 nm was measured over time and the enzyme activity is depicted was measured in duplicates (mean + or -range) and similar results were obtained in 3

For assay [3], the system named is Factor Xa. Briefly: Specificity: factor Xa. The assay is classed as biochemical. The conditions noted are these: Factor Xa 20 nM; peptide 0-50 μM; S-2765 (Fig S7). As for the experimental part:
Fig S7. […]
as §2

Assay [4] deals with ΔNTR mutant. Kind of assay: Binding of biotinylated peptides to captured ΔNTR mutant. On the set-up: species or system human. The conditions noted are these: peptide 1 μM; triplicate wells (Fig 2E). As for the experimental part:
(§3) Figure 2 NNKC9/41 interacts with the NTR of pro-FSAP: (A) To determine peptide binding to pro-FSAP, wells were coated with 2 μg/mL pro-FSAP and biotinylated NNKC9/41 and NNK11/189 and their respective scrambled controls were added in different concentration (0–5 μM). Peroxidase-labeled streptavidin was used to detect peptide binding. (B) Same procedure as in (A) except that different proteins were immobilized and biotinylated NNKC9/41 (0–30 μM) was added and its binding was measured. (C) Schematic structure of pro-FSAP with the heavy chain consisting of an NTR, three EGF domains, and a kringle domain, followed by the light chain harboring the serine protease domain (SPD). The binding domains of antibodies used in this study are indicated. (D) Recombinant complete heavy chain (heavy) and truncated heavy chain variants ΔNTR, ΔEGF1, ΔEGF2, ΔEGF3, and ΔKringle were expressed in bacteria and analyzed by sodium dodecyl sulfate poly(acrylamide) gel electrophoresis (SDS-PAGE) followed by Coomassie staining. […] Biotinylated NNKC9/41 or the scrambled control peptide was added at 1 μM and peptide binding was measured with peroxidase-linked streptavidin. […]
(§4) Wells were coated with anti-FSAP polyclonal antibodies (5 μg/mL). […] Subsequently, the plates were washed, and bound peptides were detected with peroxidase-coupled streptavidin. […]

The test system of assay [5] is pro-FSAP in MI/MI plasma. Briefly: Substrate turnover in MI/MI plasma. It counts as biochemical, human. The conditions noted are these: MI/MI citrate plasma 1:12; 25 μM (Fig 6A). As for the experimental part: Figure 6 Pro-FSAP activation and clotting in plasma by NNKC9/41: (A) citrate plasma (1:12 dilution) from donors with WT/WT, WT/MI, and MI/MI genotypes and WT-FSAP-deficient plasma (FSAP-DP) were compared. Substrate turnover was monitored after addition of NNKC9/41 or the Ser–Ser linear peptide (25 μM each). Results are shown as mean + range of duplicate wells. (B) Pooled prothrombin-deficient citrated plasma (1:5 dilution) was recalcified with 10 mM CaCl2 and incubated with NNKC9/41 or scrambled control peptide (0–25 μM each) for 60 min at 37 °C in the presence or absence of the FSAP-inhibitory MA-FSAP-38C7 (5 μg/mL). Initiation of clotting was achieved by adding the tissue factor/phospholipid and prothrombin complex concentrate. Clotting time was measured as diluted prothrombin time (dPT) in seconds. Data are the mean of three independent experiments. The relative dPT in % of the untreated control is presented as mean ± standard error (SE) (*p <0.05, two-way analysis of variance (ANOVA) and Bonferroni post-test).
Human citrate plasma (0.38% w/v) or hirudin plasma (25 μg/mL Lepirudin) was obtained from five healthy donors. […] Hydrolysis of the fluorogenic substrates was measured using a Synergy HI plate reader with excitation at 320 nm and emission at 460 nm at 37 °C for 60 min. The maximal velocity was calculated from the linear part of the progress curve. […]

Assay [6] has as its system thrombin. Briefly: Specificity: thrombin. It counts as biochemical. The conditions noted are these: thrombin 20 nM; peptide 0-50 μM; CS01 (Fig S7). As for the experimental part:
Fig S7. […]
as §1, §2

In assay [7] the test system is Factor XIIa. Kind of assay: Specificity: factor XIIa. The assay is classed as biochemical. The conditions noted are these: Factor XIIa 20 nM; peptide 0-50 μM; CS31 (Fig S7). As for the experimental part:
Fig S7. Specificity of NNKC9/41 towards other pro-enzymes: Zymogens and their respective active enzymes were incubated with NNKC9/41 or Ser-Ser linear peptide (0-50 μM) and the enzyme activity was monitored using respective chromogenic substrates. Activity of Factor XII(100 nM) and Factor XIIa (20 nM) was measured with the substrate CS31 (1000 µM). Pro-thrombin (100 nM) and thrombin (20 nM) […]
as §2

In assay [8] the test system is plasma proteins. Briefly: Binding of biotinylated NNKC9/41 to immobilized plasma proteins. The conditions noted are these: Fig 2B, as summarised. As for the experimental part: as §3, §4

T1 sequence (Q14520 24-560): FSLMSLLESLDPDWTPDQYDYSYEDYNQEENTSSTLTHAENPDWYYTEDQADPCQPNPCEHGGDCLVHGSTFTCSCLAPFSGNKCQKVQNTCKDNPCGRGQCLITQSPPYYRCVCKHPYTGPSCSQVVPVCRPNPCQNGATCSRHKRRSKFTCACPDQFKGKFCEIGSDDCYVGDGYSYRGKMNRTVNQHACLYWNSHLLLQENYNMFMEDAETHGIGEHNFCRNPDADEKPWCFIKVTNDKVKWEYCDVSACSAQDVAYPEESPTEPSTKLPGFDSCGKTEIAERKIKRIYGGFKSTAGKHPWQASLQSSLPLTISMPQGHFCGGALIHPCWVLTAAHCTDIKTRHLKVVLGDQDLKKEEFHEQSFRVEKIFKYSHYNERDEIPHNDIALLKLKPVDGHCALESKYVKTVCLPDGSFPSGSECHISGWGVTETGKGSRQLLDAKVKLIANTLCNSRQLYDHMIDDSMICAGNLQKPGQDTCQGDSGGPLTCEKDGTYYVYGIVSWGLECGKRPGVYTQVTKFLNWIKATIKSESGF

CRGAMWMYKRC [NNKC9/41]: the “effect in citrate plasma 1:2” value in assay [1] (citrate plasma 1:2, 10 μM, 3 donors (Fig S5)) is on record as “completely abolished”. In assay [1] (hirudin and citrate plasma 1:2 (Fig S5)), the “pro-FSAP activation in 1:2 diluted plasma vs higher dilution” value is listed as “lower pro-FSAP activation”. Moreover, the effect on activity entry in assay [2], in assay [3], in assay [6] and in assay [7] was “did not influence the activity” throughout. Further, in assay [4], the “peptide binding to ΔNTR mutant” value is given as “very low binding”. The substrate turnover result in assay [5] is recorded as “none”. In assay [8], the “binding to other plasma proteins” value is given as “did not bind to any other plasma proteins tested, except FSAP”.

Source of the values: article PMC9486805, “Identification of a Phage Display-Derived Peptide Interacting with the N-Terminal Region of Factor VII Activating Protease (FSAP) Enables Characterization of Zymogen Activation” (ACS Chemical Biology, 2022).
